Results taken from the supplement of paper PMC10307832.

Compound: CN(C)CC1=CC(=CC=C1)N=C(C2=CC=CC=C2)C3=C(NC4=C3C=CC(=C4)C(=O)N(C)C)O + CC(=O)Nc1cccc(-n2c(=O)n(C3CC3)c(=O)c3c(Nc4ccc(I)cc4F)n(C)c(=O)c(C)c32)c1 [Trametinib] (partner 0.02 µM)
Test: relative viability (nuclei count vs DMSO), 5 days (fraction); higher = more cells survive
Outline: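 Lung cancer cell lines in 1536-well plates were dosed by pin tool the day after seeding, either with one drug alone or with a fixed anchor-drug dose plus five library-drug doses (not always all listed) in √10 steps. After 5 days, cells were fixed and their nuclei stained in one step (final 0.05% Triton X-100, 1% formaldehyde, 1 ug/ml Hoechst), then counted on 4× images. Relative viability is the nuclei count in treated wells divided by that in vehicle wells. Values are medians of duplicate plates.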

Row | Cell Line | relative viability (first compound 0.08 µM) | relative viability (first compound 0.253 µM) | relative viability (first compound 0.8 µM) | relative viability (first compound 2.53 µM) | relative viability (first compound 8 µM)
1 | 201T | 0.71 | 0.693 | 0.73 | 0.716 | 0.657
2 | A-427 | 0.752 | 0.787 | 0.776 | 0.686 | 0.663
3 | BEN | 1.01 | 0.799 | 1.2 | 1.01 | 0.941
4 | CAL-12T | 0.389 | 0.399 | 0.338 | 0.459 | 0.354
5 | COR-L23 | 0.688 | 0.551 | 0.589 | 0.517 | 0.567
6 | COR-L 105 | 0.508 | 0.447 | 0.381 | 0.492 | 0.398
7 | ChaGo-K-1 | 0.857 | 0.89 | 0.882 | 0.835 | 0.808
8 | EKVX | 0.32 | 0.389 |  | 0.432 | 0.438
9 | EMC-BAC-2 | 0.942 | 0.965 | 0.886 | 0.881 | 0.969
10 | EPLC-272H | 0.335 | 0.318 | 0.289 | 0.304 | 0.266
11 | H3255 | 0.64 | 0.642 |  | 0.66 | 0.692
12 | HARA | 0.715 | 0.632 | 0.622 | 0.59 | 0.84
13 | HCC-15 | 0.362 | 0.392 | 0.356 | 0.389 | 0.434
14 | HCC-44 | 1.04 | 1.04 | 1.08 | 1.04 | 1.12
15 | HCC-78 | 0.79 | 0.708 | 0.868 | 0.785 | 0.65
16 | HCC-366 | 0.47 | 0.323 | 0.325 | 0.339 | 0.24
17 | HCC-827 | 0.541 | 0.491 | 0.429 | 0.495 | 0.49
18 | HOP-62 | 0.363 | 0.361 | 0.391 | 0.362 | 0.339
19 | LC-2-ad | 0.86 | 0.885 | 0.893 | 0.866 | 0.841
20 | LCLC-97TM1 | 0.231 | 0.222 | 0.2 | 0.191 | 0.176
21 | LCLC-103H | 0.707 | 0.623 | 0.642 | 0.675 | 0.619
22 | LK-2 | 0.776 | 0.861 | 0.674 | 0.835 | 0.655
23 | LOU-NH91 | 0.76 | 0.807 | 0.759 | 0.818 | 0.788
24 | LU99A | 0.504 | 0.499 | 0.571 | 0.482 | 0.411

Row | Cell Line | relative viability (first compound 0.08 µM) | relative viability (first compound 0.253 µM) | relative viability (first compound 0.8 µM) | relative viability (first compound 2.53 µM) | relative viability (first compound 8 µM)
25 | LXF-289 | 0.669 | 0.628 | 0.643 | 0.573 | 0.655
26 | NCI-H23 |  | 0.503 | 0.357 | 0.404 | 0.339
27 | NCI-H322M | 0.49 | 0.497 | 0.477 | 0.487 | 0.468
28 | NCI-H358 | 0.146 | 0.171 | 0.125 | 0.092 | 0.129
29 | NCI-H441 | 0.495 | 0.508 | 0.354 | 0.444 | 0.462
30 | NCI-H460 | 0.142 | 0.133 | 0.195 | 0.0771 | 0.163
31 | NCI-H520 | 0.493 | 0.703 | 0.664 | 0.594 | 0.497
32 | NCI-H596 | 0.809 | 0.873 | 0.921 | 0.821 | 0.723
33 | NCI-H647 | 0.463 | 0.492 | 0.434 | 0.388 | 0.299
34 | NCI-H650 | 0.974 | 1.17 | 0.975 | 0.812 | 0.964
35 | NCI-H661 | 0.565 | 0.551 | 0.54 | 0.591 | 0.592
36 | NCI-H727 |  | 0.368 | 0.428 | 0.391 | 0.426
37 | NCI-H838 | 0.528 | 0.51 | 0.494 | 0.473 | 0.431
38 | NCI-H1355 | 0.472 | 0.407 | 0.314 | 0.392 | 0.51
39 | NCI-H1395 | 0.983 | 0.96 | 1.16 | 1 | 0.892
40 | NCI-H1437 | 0.574 | 0.53 | 0.475 | 0.572 | 0.656
41 | NCI-H1648 | 0.482 | 0.368 |  | 0.534 | 0.554
42 | NCI-H1650 | 0.69 | 0.569 | 0.63 | 0.604 | 0.601
43 | NCI-H1651 | 0.857 | 0.819 | 0.863 | 0.851 | 0.788
44 | NCI-H1666 | 0.966 | 0.879 | 0.73 | 0.85 | 0.928
45 | NCI-H1734 | 0.625 | 0.701 | 0.735 | 0.698 | 0.579
46 | NCI-H1755 | 0.844 | 0.709 | 0.708 | 0.779 | 0.736
47 | NCI-H1792 | 0.473 | 0.371 | 0.485 | 0.501 | 0.425
48 | NCI-H1793 | 0.426 | 0.418 | 0.433 | 0.381 | 0.445

Row | Cell Line | relative viability (first compound 0.08 µM) | relative viability (first compound 0.253 µM) | relative viability (first compound 0.8 µM) | relative viability (first compound 2.53 µM) | relative viability (first compound 8 µM)
49 | NCI-H1915 | 0.298 | 0.278 | 0.32 | 0.289 | 0.265
50 | NCI-H1944 | 0.44 | 0.4 | 0.337 | 0.464 | 0.373
51 | NCI-H1975 | 0.368 | 0.323 | 0.304 | 0.298 | 0.238
52 | NCI-H1993 | 0.464 | 0.513 |  | 0.53 | 0.592
53 | NCI-H2009 | 0.276 | 0.314 | 0.271 | 0.297 | 0.244
54 | NCI-H2023 | 0.639 | 0.557 | 0.556 | 0.545 | 0.471
55 | NCI-H2085 | 0.509 | 0.568 | 0.599 | 0.643 | 0.545
56 | NCI-H2087 | 0.21 | 0.247 | 0.201 | 0.196 | 0.166
57 | NCI-H2126 | 0.6 | 0.59 | 0.484 | 0.602 | 0.55
58 | NCI-H2170 | 0.899 | 0.892 | 0.758 | 0.917 | 0.809
59 | NCI-H2228 | 0.625 | 0.417 | 0.376 | 0.457 | 0.421
60 | NCI-H2342 | 0.894 | 0.751 | 0.727 | 0.906 | 1.23
61 | NCI-H2347 | 0.301 | 0.26 | 0.278 | 0.252 | 0.33
62 | NCI-H2405 | 0.642 | 0.634 | 0.593 | 0.605 | 0.535
63 | NCI-H3122 | 0.225 | 0.203 | 0.235 | 0.245 | 0.243
64 | PC-3 [JPC-3] | 0.709 | 0.681 | 0.653 | 0.678 | 0.702
65 | PC-14 | 0.932 | 0.904 | 0.968 | 0.8 | 0.76
66 | RERF-LC-KJ | 0.911 | 0.837 | 0.844 | 0.907 | 0.846
67 | SK-LU-1 | 0.448 | 0.446 | 0.459 | 0.445 | 0.385
68 | SK-MES-1 | 0.524 | 0.576 | 0.588 | 0.497 | 0.406
69 | SW 1573 | 0.56 | 0.572 | 0.587 | 0.637 | 0.515
70 | UMC-11 | 0.836 | 0.674 | 0.716 | 0.576 | 0.742
